The subject of data set [1] is Hep3B hepatocellular carcinoma cell line. Conditions: for Tumor Weight (g) Mean ± SEM: Hep3B in liver of nude mice, day 35, oral daily, sorafenib 30 mg/kg/day alone, 20 mg/kg/day in combination, AC 180, AK and AB 360 μmol/kg/day; for Body Weight (g) Mean ± SEM Initial: in vivo; for Complete Regressions: number of mice with no viable tumor at necropsy, doses as Table 35. An excerpt: Hepatocellular carcinoma (HCC) is one of the most common and lethal cancers worldwide, generally developing as a consequence of chronic infection with hepatitis B or C viruses. […] The Hep3B hepatocellular carcinoma cell line is human in origin, contains genetic traces of hepatitis B virus, and can be injected into the livers of athymic immunocompromised mice as a model of primary HCC. […] The test compounds were all administered orally.
The test compounds of the invention were suspended in 1% hydroxypropylmethylcellulose (HPMC) using a sonicator equipped with a microtip to minimize particle size and maximize uniformity of the suspension. Sorafenib was dissolved in a 1:1 mixture of Cremophor EL and ethanol by heating to 60° C. for 1 minute and then sonicating for 10 minutes to fully suspend. Female nude mice (Hsd:athymic nude-Foxn1^nu) weighing approximately 25 g were anesthetized with ketamine/xylazine, laid on their backs, and a 1-cm transverse incision made through the skin and peritoneum of the left upper abdomen. The mediant lobe of the liver was exposed by applying gentle pressure on the abdomen. 1.5-2×10^6 Hep3B cells in a 20 μL volume of matrigel:EMEM serum free (1:1) were slowly implanted by subserosal injection into the liver using a 27-gauge needle on a Hamilton syringe. The liver was allowed to slip back into place, and the peritoneum was closed with sutures and wound clips.
Mice were divided into 8 groups of mice each following injection of cells; the vehicle/vehicle group comprised 12 mice and the other groups comprised 8 or 9. Mice began receiving oral test drug treatments 48 hr post cell injection.
The test compounds, sorafenib, and vehicles were administered by oral gavage. Sorafenib or its cremophor-containing vehicle were given in the morning and compounds of the invention or their HPMC vehicle was administered in the afternoon each day; all animals received two gavage treatments of drugs or appropriate vehicles daily.

For data set [2], the system named is C. neoformans (serotype A) phagocytosed by THP-1-derived macrophages. In words: Example M: phagocytosed Cryptococcus neoformans antifungal screen in THP-1-derived macrophages. Format: cell-based. Conditions: for inhibition of fungal growth after phagocytosis and lysis, in words: 0.5, 1 or 2 μM; for IC50: after macrophage phagocytosis and lysis. The procedure: Two concentrations of macrophages (1×10^5 and 2×10^5/well) and a high concentration of C. neoformans (4×10^6/well) (MOI values of 40 and 20 respectively) were tested in this experiment.
THP-1 cells were adjusted to 5×10^5/ml or 1×10^6/ml in cRPMI+PMA
200 μl was transferred to a flat-bottomed 96-well dish (1×10^5 and 2×10^5/well) (48 hrs at 37 C) Media was removed and fresh cRPMI+PMA added (further 24 hrs at 37 C)
C. neoformans cells in DPBS were opsonized with human serum (60 mins at 30 C)
The opsonized yeast was washed (DPBS) and resuspended at 1×10^7/ml or 2×10^7/ml in cRPMI. 100 μl added to macrophage plate (1×10^6 and 2×10^6/well) (4 hrs at 37 C) washed ×4 with DPBS 100 μl of cRPMI was added to each well (18 hrs at 37 C) Compound AC was added to some wells. Media was removed, no wash, 25 μl 0.05% Triton X-100 added to lyse cells (3 mins RT rocking) 125 μl YPD broth was added and the plate incubated (24 hrs at 30 C then 24 hrs at 37 C) C. neoformans growth was determined on a Spectrophotometer (600 nm) after 24 and 48 hours
THP-1 cells (p15) grown in cRPMI [RPMI (Lonza 12-115F) plus 10% ΔFBS (Lonza DE14-701F)] were counted on a hemacytometer. Cells were spun at 1,800 rpm, RT for 5 mins, supernatant aspirated, pellet disturbed then adjusted to 5.0×10^5/ml and 1.0×10^6/ml in cRPMI supplemented with 0.2 μg/ml phorbol 12-myristate 13-acetate (PMA) (1 mg/ml in DMSO Sigma P8139). 200 μl aliquots of each cell concentration were transferred to […] (half a plate) of a flat-bottomed 96-well dish (1×10^5 and 2×10^5/well) and placed in a 37 C incubator for 48 hours, media was then removed and 200 μl of fresh cRPMI+PMA added. The plate was incubated for an additional 24 hours at 37 C then processed for yeast uptake.
In parallel to macrophage preparation, C. neoformans cells were grown from a single colony in 20 ml YPD broth at 30 C overnight. Absorbance of 1:10 dilution of the overnight (ON) culture gave 0.89 OD at 600 nm. Estimated concentration of this stock was 4×10^8 cells/ml (2×10^8 cells/ml gave an OD 600 nm of 0.426 in an earlier study Cryptococcus macrophage development plate 3 ML113012). The cells were washed with DPBS once and resuspended in 2 ml DPBS. 230 μl of this stock (˜60×10^7 cells) was brought up to 500 μl with DPBS in an Eppendorf tube. For opsonization, 500 μl of human serum (SIGMA S7023) was added and the tube incubated at 30 C for 60 mins with orbital shaking. […] A 1:200 dilution of cells was counted (4.25×10^6/ml), equivalent to 8.5×10^8/ml for the 1× stock. 470 μl of the 1× stock was brought up to 10 ml with cRPMI for a final concentration of 4×10^7/ml.
Media was aspirated from the prepared macrophage plate and 100 μl of the opsonized fungal cell suspension added to the wells. Media without yeast was added to triplicate wells for each macrophage concentration to provide background readings. Three empty wells (no macrophages) were seeded with fungus to serve as the wash control. The plates were then incubated at 37 C for 4 hours then washed 4 times with DPBS (plates were shakes briefly after addition of DPBS to increase wash efficiency). 144 μl of cRPMI was added to each well and 6 μl of 12.5 μM, 25 μM and 50 μM stocks of compounds AM, BM, AH, and AC added in triplicate for final concentrations of 0.5 μM, 1 μM or 2 μM. The plate was incubated at 37 C, 5% CO2 for 18 hours. Media was removed, 25 μl of 0.05% Triton X-100 (SIGMA T-9284) in DPBS was added to each well and the plate rocked at RT for 3 min, to lyse the cells. 125 μl YPD broth (KD Medical YLF-3260) was then added to each well and the plate placed in a 30 C incubator. C. neoformans cell growth was determined by measuring absorbance at 600 nm on a Spectrophotometer (Spectra Max Plus using program SoftMax Pro) after […].

[3] abbreviates: Cryptococcus neoformans, read-out: IC50 value (μM) for inhibition of fungal growth, 1 × 10^5 macrophages.
Setting [4] is: Cryptococcus neoformans, read-out: IC50 value (μM) for inhibition of fungal growth, 2 × 10^5 macrophages.

Like-named read-outs stand apart in the source and are kept apart here.

Regarding `CCCCCCOc1cccc(CNc2ncnc3ccccc23)c1` [AK, N-[3-(Hexyloxy)benzyl]quinazolin-4-amine], in data set [1], the “Tumor Weight (g) Mean ± SEM” value was 1.56 ± 0.39^ g and the “Body Weight (g) Mean ± SEM Initial” value came out at 25.9 ± 0.7 g. In addition, in data set [1] (day 35), the “Complete Regressions” value is 2. Besides, the “reduction of tumor size versus vehicle” value in data set [1] (single agents, oral, day 35, sorafenib 30 mg/kg/day) is listed as “numerically but not statistically significant reduction in tumor size versus vehicle”.

What is called IC50 is the concentration needed to halve the response being measured. As to `CCCCOCCCCCCCCCCNc1ccnc2ccccc12` [AM, N-(10-Butoxydecyl)quinolin-4-amine], the “inhibition of fungal growth after phagocytosis and lysis, in words” value (“inhibition of fungal growth” for short) in data set [2] was “clear dose dependent inhibition of fungal growth after phagocytosis and lysis”. Further, the results for the IC50 in data set [2] (setting [3]) and in data set [2] (setting [4]) were 1.13 µM and 0.85 µM, respectively.

Consider `c1ccc(Oc2cccc(CNc3ncnc4ccccc34)c2)cc1` [BM, N-(3-Phenoxybenzyl)quinazolin-4-amine], for which, in data set [2], the “inhibition of fungal growth” value was “clear dose dependent inhibition of fungal growth after phagocytosis and lysis”. Moreover, the IC50 in data set [2] (setting [3]) was found to be 1.8 µM; in data set [2] (setting [4]), 1.31 µM.

Regarding `CCCCCCOc1cccc(CNc2ccnc3ccccc23)c1` [Compound AC, N-[3-(Hexyloxy)benzyl]quinolin-4-amine], in data set [2], the “inhibition of fungal growth” value was “clear dose dependent inhibition of fungal growth after phagocytosis and lysis”. Besides, the IC50 in data set [2] (setting [3]) was found to be 1.29 µM. In addition, in data set [2] (setting [4]), the half-inhibitory concentration (IC50) turned out to be 1.35 µM. For the same compound, in data set [1], the “Tumor Weight (g) Mean ± SEM” value is 0.49 ± 0.17 g and the “Body Weight (g) Mean ± SEM Initial” value is recorded as 25.4 ± 0.5 g. The “Complete Regressions” value in data set [1] (day 35) is 2.

Usually inhibition stands for the percentage by which the read-out fell short of the control. For `CCCCCCCCCCNc1ncnc2ccccc12` [Compound AH, N-(Decyl)quinazolin-4-amine], the “inhibition of fungal growth” value in data set [2] was “clear dose dependent inhibition of fungal growth after phagocytosis and lysis”. In data set [2] (Cryptococcus neoformans, Macrophage, at 2 μM, after phagocytosis, read-out: inhibition of the fungal growth), the inhibition at 2 µM is around 100%. Further, the figures for the half-maximal inhibitory concentration (IC50) in data set [2] (setting [3]) and in data set [2] (setting [4]) were 0.29 µM and 0.25 µM, respectively.

For the origin of these results see patent US20250034139A1, “AMINE COMPOUNDS HAVING ANTI-INFLAMMATORY, ANTIFUNGAL, ANTIPARASITIC, AND ANTICANCER ACTIVITY” (PHARMA CINQ, LLC, priority 2013, published 2025).
